Converted amounts (≈) assume the structure as drawn. Square brackets hold non-standard residues; d marks the D form. Peptide text beside a SMILES is read from it. Nspe = C[C@H](NCC(=O)O)c1ccccc1; Nphe = O=C(O)CNCc1ccccc1; Nlys = NCCCCNCC(=O)O
Tests used:
[1] = system: erythrocytes; experiment: Hemolytic activity (HD10/HD50); assay type: cell-based
Description: Table 1 Characteristics of antimicrobial peptoids, screened for activity against B. subtilis and E. coli bacterial strains. | column: HD10 / HD50

[2] = system: NIH 3T3 cells; experiment: Metabolic activity, MTS assay; assay type: cell-based, mouse
Protocol: NIH 3T3 mouse fibroblast cells were cultured in complete Dulbecco’s Modified Eagle’s Media. A peptoid solution plate (100 µL per well) was prepared by serial dilution of aqueous peptoid stock solutions in Hank’s balanced salt solution. A day-old cell monolayer was washed thoroughly with Hank’s balanced salt solution and replenished with 100 µL Hank’s balanced salt solution per well. Peptoid solutions were transferred onto the day-old cell monolayers, which contained approximately 5000 cells per well. […] The average of six replicate trials is reported.

[3] = system: E. coli ATCC 35218; assay type: cell-based
Protocol: MICs against B. subtilis and E. coli screening bacterial strains were determined using serial dilution in 96-well microtiter plates in accordance with CLSI M7-A6 protocols. Briefly, peptoid solution in cation-adjusted Mueller-Hinton broth was prepared by 2:1 serial dilution with a total volume of 50 µL per well. In experimental wells, 50 µL of bacterial inoculums (1 x 10^6 CFU/mL) were added to the peptoid solutions. Positive controls consisted of 50 µL inoculums added to 50 µL cation-adjusted Mueller-Hinton broth containing no peptoid, while negative controls contained only cation-adjusted Mueller-Hinton broth. […] Experiments were reproducible among three independent replicates, each consisting of two parallel trials.

[4] = system: E. cloacae 218R Class C β-lactamase; experiment: microbe, parasite or virus in culture; settings: 218R Class C β-lactamase
Protocol: (§1) The MICs of test agents were measured using a modified broth micro-dilution method in Difco Mueller Hinton medium, on a panel of bacterial pathogens that were both susceptible and resistant to common antibiotics (S1 File). Briefly, serial dilutions were performed in 0.01% acetic acid containing 0.2% bovine serum albumin at 10-fold the desired final concentration. Ten μL of the 10-fold concentrated test reagents were added to each well of a 96-well polypropylene microtitre plate containing 90 μL of Mueller Hinton media per well. Bacteria were added to the plate from an overnight culture at a final concentration of 2–7 x 10^5 CFU/mL and incubated overnight at 37°C. The MIC is defined as the concentration at which no growth was observed.
(§2) Screening of peptoid antimicrobial activity against a panel of multidrug resistant superbugs was done according to the protocol described in the manuscript. The bacterial strains used in this panel included; P. aeruginosa PAO1 strain H103 [1], P. maltophilia ATCC#13637, S. aureus ATCC#25923 [1], E. faecalis ATCC#29212 [2], and E. cloacae 218R, constitutively expressing Class C chromosomal β-lactamase, were from the Hancock lab strains collection. An MRSA clinical isolate was kindly provided by Anthony Chow (Vancouver General Hospital, Vancouver, Canada). Two Klebsiella pneumoniae and two E. coli clinical isolates expressing extended spectrum β-lactamases (ESBL) were kindly provided by George Zhanel (Health Sciences Centre, Winnipeg, Canada). Vancomycin-resistant clinical isolates of Enterococcus faecalis and E. faecium were obtained from Ana M. Paccagnella (BC Centre for Disease Control, Vancouver, Canada). Three clinical isolates (#9, #198 and #213) of multi-drug resistant P. aeruginosa, were kindly provided by Carlos Kiffer (University of São Paulo, Brazil). […] Three P. aeruginosa clinical isolates of the Liverpool epidemic strain (LES) (H1027, H1030 and LES400) were all kindly provided by Craig Winstanley (University of Liverpool, UK). […] All tested bacterial strains were categorized as biohazard level 2 pathogens.

[5] = system: E. coli 63103 (ESBL); experiment: microbe, parasite or virus in culture; settings: 63103 (ESBL)
Protocol: as §1, §2

[6] = system: E. coli 64771 (ESBL); experiment: microbe, parasite or virus in culture; settings: 64771 (ESBL)
Protocol: as §1, §2

[7] = system: E. faecalis ATCC29212; experiment: microbe, parasite or virus in culture; settings: ATCC29212
Protocol: as §1, §2

[8] = system: E. faecalis F43559 (VRE); experiment: microbe, parasite or virus in culture; settings: F43559 (VRE)
Protocol: as §1, §2

[9] = system: E. faecalis W61950 (VRE); experiment: microbe, parasite or virus in culture; settings: W61950 (VRE)
Protocol: as §1, §2

[10] = system: E. faecium T62764 (VRE); experiment: microbe, parasite or virus in culture; settings: T62764 (VRE)
Protocol: as §1, §2

[11] = system: E. faecium mic80 (VRE); experiment: microbe, parasite or virus in culture; settings: mic80 (VRE)
Protocol: as §1, §2

[12] = system: K. pneumonia 61962 (ESBL); experiment: microbe, parasite or virus in culture
Protocol: as §1, §2

[13] = system: K. pneumonia 63575 (ESBL); experiment: microbe, parasite or virus in culture
Protocol: as §1, §2

[14] = system: P. aeruginosa 198 (MDR); experiment: microbe, parasite or virus in culture; settings: 198 (MDR)
Protocol: as §1, §2

[15] = system: P. aeruginosa 213 (MDR); experiment: microbe, parasite or virus in culture; settings: 213 (MDR)
Protocol: as §1, §2

[16] = system: P. aeruginosa 9 (MDR); experiment: microbe, parasite or virus in culture; settings: 9 (MDR)
Protocol: as §1, §2

[17] = system: P. aeruginosa H1027 (MDR); experiment: microbe, parasite or virus in culture; settings: H1027 (MDR)
Protocol: as §1, §2

[18] = system: P. aeruginosa H103 (wild type); experiment: microbe, parasite or virus in culture; settings: H103 (wild type)
Protocol: as §1, §2

[19] = system: P. aeruginosa H1030 (MDR); experiment: microbe, parasite or virus in culture; settings: P. aeruginosa H1030 (MDR)
Protocol: as §1, §2

[20] = system: P. aeruginosa LES400 (MDR); experiment: microbe, parasite or virus in culture; settings: LES400 (MDR)
Protocol: as §1, §2

[21] = system: P. maltophilia ATCC13637; experiment: microbe, parasite or virus in culture; settings: ATCC13637
Protocol: as §1, §2

[22] = system: S. aureus ATCC25923; experiment: microbe, parasite or virus in culture; settings: ATCC25923
Protocol: as §1, §2

[23] = system: S. aureus C623 (MRSA); experiment: microbe, parasite or virus in culture; settings: C623
Protocol: as §1, §2

With `C[C@H](NCC(=O)N(CCCCN)CC(=O)N(CC(=O)N(CCCCN)CC(=O)N(CCCCN)CC(=O)N(CCCCN)CC(=O)N(CC(=O)N(CCCCN)CC(=O)N(CC(=O)N(CCCCN)CC(=O)N(CCCCN)CC(=O)N(CC(=O)N(CC(=O)N(CCCCN)CC(=O)N(CC(N)=O)[C@@H](C)c1ccccc1)[C@@H](C)c1ccccc1)[C@@H](C)c1ccccc1)[C@@H](C)c1ccccc1)[C@@H](C)c1ccccc1)[C@@H](C)c1ccccc1)c1ccccc1` [1B15mer-NLys4,6,10, H-(Nspe-NLys)2-NLys2-(Nspe-NLys)2-NLys-Nspe2-NLys-Nspe-NH2] (H-[Nspe][Nlys][Nspe][Nlys][Nlys][Nlys][Nspe][Nlys][Nspe][Nlys][Nlys][Nspe][Nspe][Nlys][Nspe]-NH2) the “HD10 (hemolytic activity)” value [1] was >200 / >200, the “HD50 (hemolytic activity)” value [1] was >200 / >200 and the “ID50 (inhibitory dose, metabolic activity)” value [2] was 40 µM.

With `C[C@@H](c1ccccc1)N(CC(N)=O)C(=O)CN(C(=O)CN(CCCCN)C(=O)CN(C(=O)CN(C(=O)CN(CCCCN)C(=O)CN(C(=O)CN(C(=O)CN(CCCCN)C(=O)[C@@H]1CCCN1C(=O)CN(C(=O)CNCCCCN)[C@@H](C)c1ccccc1)[C@@H](C)c1ccccc1)[C@@H](C)c1ccccc1)[C@@H](C)c1ccccc1)[C@@H](C)c1ccccc1)[C@@H](C)c1ccccc1` [Peptoid 1-Pro3, H-NLys-Nspe-L-Pro-(NLys-Nspe-Nspe)3-NH2] (H-[Nlys][Nspe]P[Nlys][Nspe][Nspe][Nlys][Nspe][Nspe][Nlys][Nspe][Nspe]-NH2) the “MIC E. coli” value [3] was 12.5 µM (≈ 21.9 µg/mL), the “HD10 (hemolytic activity)” value [1] was 74 and the “HD50 (hemolytic activity)” value [1] was > 200. The MIC [4] was 16 µg/mL (≈ 9.12 µM), the MIC [5] was 16 µg/mL (≈ 9.12 µM) and the MIC [6] was 8 µg/mL (≈ 4.56 µM). It also gave an MIC [7] of 8 µg/mL (≈ 4.56 µM), an MIC [8] of 8 µg/mL (≈ 4.56 µM) and an MIC [9] of 16 µg/mL (≈ 9.12 µM). For the same compound, the MIC [10] was 2 µg/mL (≈ 1.14 µM), the MIC [11] was 4 µg/mL (≈ 2.28 µM) and the MIC [12] was 32 µg/mL (≈ 18.2 µM). It also gave an MIC [13] of 32 µg/mL (≈ 18.2 µM), an MIC [14] of 16 µg/mL (≈ 9.12 µM) and an MIC [15] of 8 µg/mL (≈ 4.56 µM). It also gave an MIC [16] of 128 µg/mL (≈ 72.9 µM), an MIC [17] of 2 µg/mL (≈ 1.14 µM) and an MIC [18] of 8 µg/mL (≈ 4.56 µM). For the same compound, the MIC [19] was 16 µg/mL (≈ 9.12 µM), the MIC [20] was 8 µg/mL (≈ 4.56 µM) and the MIC [21] was 1 µg/mL (≈ 0.57 µM). It also gave an MIC [22] of 4 µg/mL (≈ 2.28 µM) and an MIC [23] of 4 µg/mL (≈ 2.28 µM).

`C[C@@H](c1ccccc1)N(CC(N)=O)C(=O)CN(CCCCN)C(=O)CN(C(=O)CN(C(=O)CN(CCCCN)C(=O)CN(C(=O)CN(C(=O)CN(CCCCN)C(=O)CN(C(=O)CN(C(=O)CNCCCCN)[C@@H](C)c1ccccc1)[C@@H](C)c1ccccc1)[C@@H](C)c1ccccc1)[C@@H](C)c1ccccc1)[C@@H](C)c1ccccc1)[C@@H](C)c1ccccc1` [Peptoid 1_11mer, H-(NLys-Nspe-Nspe)3-NLys-Nspe-NH2] (H-[Nlys][Nspe][Nspe][Nlys][Nspe][Nspe][Nlys][Nspe][Nspe][Nlys][Nspe]-NH2) was tested, and the “MIC E. coli” value [3] was 6.3 µM (≈ 10.4 µg/mL), the “HD10 (hemolytic activity)” value [1] was 103 and the “HD50 (hemolytic activity)” value [1] was > 200. For the same compound, the “ID50 (inhibitory dose, metabolic activity)” value [2] was 11 µM.

For `C[C@H](NCC(=O)N(CCCCN)CC(=O)N(CC(=O)N(CCCCN)CC(=O)N(CCCCN)CC(=O)N(CC(=O)N(CC(=O)N(CCCCN)CC(=O)N(CC(=O)N(CCCCN)CC(=O)N(CCCCN)CC(=O)N(CC(=O)N(CC(=O)N(CCCCN)CC(=O)N(CC(N)=O)[C@@H](C)c1ccccc1)[C@@H](C)c1ccccc1)[C@@H](C)c1ccccc1)[C@@H](C)c1ccccc1)[C@@H](C)c1ccccc1)[C@@H](C)c1ccccc1)[C@@H](C)c1ccccc1)c1ccccc1` [1B15mer-NLys4,10, H-(Nspe-NLys-Nspe-NLys-NLys-Nspe)2-Nspe-NLys-Nspe-NH2] (H-[Nspe][Nlys][Nspe][Nlys][Nlys][Nspe][Nspe][Nlys][Nspe][Nlys][Nlys][Nspe][Nspe][Nlys][Nspe]-NH2), the “HD10 (hemolytic activity)” value [1] was >200 / >200, the “HD50 (hemolytic activity)” value [1] was >200 / >200 and the “ID50 (inhibitory dose, metabolic activity)” value [2] was 16 µM. The MIC [5] was 256 µg/mL (≈ 116 µM), the MIC [8] was 256 µg/mL (≈ 116 µM) and the MIC [9] was 128 µg/mL (≈ 58.1 µM). For the same compound, the MIC [10] was 4 µg/mL (≈ 1.81 µM), the MIC [11] was 32 µg/mL (≈ 14.5 µM) and the MIC [12] was 256 µg/mL (≈ 116 µM). For the same compound, the MIC [14] was 16 µg/mL (≈ 7.26 µM).

`C[C@@H](c1ccccc1)N(CC(N)=O)C(=O)CN(Cc1ccccc1)C(=O)CN(CCCCN)C(=O)CN(C(=O)CN(Cc1ccccc1)C(=O)CN(CCCCN)C(=O)CN(C(=O)CN(Cc1ccccc1)C(=O)CN(CCCCN)C(=O)CN(C(=O)CN(Cc1ccccc1)C(=O)CNCCCCN)[C@@H](C)c1ccccc1)[C@@H](C)c1ccccc1)[C@@H](C)c1ccccc1` [1-Npm2,5,8,11, H-(NLys-Npm-Nspe)4-NH2] (H-[Nlys][Nphe][Nspe][Nlys][Nphe][Nspe][Nlys][Nphe][Nspe][Nlys][Nphe][Nspe]-NH2) was tested, and the “MIC E. coli” value [3] was 6.3 µM (≈ 11.1 µg/mL), the “HD10 (hemolytic activity)” value [1] was 87 and the “HD50 (hemolytic activity)” value [1] was > 200. The MIC [4] was 8 µg/mL (≈ 4.54 µM), the MIC [5] was 8 µg/mL (≈ 4.54 µM) and the MIC [6] was 4 µg/mL (≈ 2.27 µM). For the same compound, the MIC [7] was 4 µg/mL (≈ 2.27 µM), the MIC [8] was 4 µg/mL (≈ 2.27 µM) and the MIC [9] was 16 µg/mL (≈ 9.07 µM). For the same compound, the MIC [10] was 1 µg/mL (≈ 0.567 µM), the MIC [11] was 4 µg/mL (≈ 2.27 µM) and the MIC [12] was 32 µg/mL (≈ 18.1 µM). It also gave an MIC [13] of 16 µg/mL (≈ 9.07 µM), an MIC [14] of 8 µg/mL (≈ 4.54 µM) and an MIC [15] of 4 µg/mL (≈ 2.27 µM). The MIC [16] was 64 µg/mL (≈ 36.3 µM), the MIC [17] was 2 µg/mL (≈ 1.13 µM) and the MIC [18] was 4 µg/mL (≈ 2.27 µM). It also gave an MIC [19] of 16 µg/mL (≈ 9.07 µM), an MIC [20] of 8 µg/mL (≈ 4.54 µM) and an MIC [21] of 2 µg/mL (≈ 1.13 µM). For the same compound, the MIC [22] was 4 µg/mL (≈ 2.27 µM) and the MIC [23] was 8 µg/mL (≈ 4.54 µM).
